# Laboratory results as given in patent US20240376056A1, “PHENYL ACETAMIDE BASED IL-17A MODULATORS AND USES THEREOF” (DiCE Alpha, Inc., priority 2021, published 2024).
# Target: T1, IL-17A/A (Homo sapiens, UniProt Q16552)
# T1 construct: purchased Genscript Z03228
# T1 sequence (Q16552 24-155): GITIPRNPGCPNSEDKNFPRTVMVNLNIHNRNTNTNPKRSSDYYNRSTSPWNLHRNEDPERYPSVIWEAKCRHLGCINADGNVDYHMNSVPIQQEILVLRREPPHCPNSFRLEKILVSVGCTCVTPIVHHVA
# Assay: HEK-Blue IL-17A/A inhibition assay (SEAP reporter)
# Type: cell-based
# Details: HEK-Blue cells (HEK 293 expressing IL-17RA, IL-17RC, Act1); IL-17A/A stimulation; 20 hours; SEAP read at A630; 4-parameter fit
# Experimental: The HEK-Blue #NC108637 […]. Cells were grown and prepared for assays according to the manufacturer's instructions. This cell line consists of HEK 293 cells that were designed to expressed IL-17R^A, IL-17RC, and the ActI adapter molecule, the combination of which. when stimulated by IL-17A/A activates a NFtcB promoter and drives expression of a recombinant Secreted Alkaline Phosphatase (SEAP) geneprotein. Media from the cells is then added to a development reagent (Quanti-Blue Substrate, Fisher #NC971 1613), and read at A630.
# Compounds were titrated in DMSO. with a top final compound concentration of 10 uM, 1 uM, or 0.3 uM, and added to the cells immediately before adding IL-17A/A (Genscript #Z03228). The cells, compound, and IL-17A/A were then incubated for 20 hours before media was removed for SEAP analysis. The resulting inhibition curve was then analyzed using Graphpad Prism 7.0, and IC50 values were determined using a 4-parameter nonlinear fit. DMSO was added to a universal final concentration of 0.1% to optimze background.
row,Structure (SMILES),IC50
1,"COc1cc(NC(=O)[C@@H](NC(=O)c2ccnn2C(C)C)C(C2CC2)C2CC2)c(F)cc1C(C)C(=O)N1CC(O)CC1C(F)(F)F (single isomer, unassigned) [Compound 213]",0.1 to 1 µM
2,"CC(C(=O)NCC(F)(F)F)c1cc(F)c(NC(=O)[C@@H](NC(=O)c2ccnn2C(C)C)C2CCC(F)(F)CC2)cc1OC(F)(F)F (single isomer, unassigned) [Compound 219]",0.1 to 1 µM
3,"CC(C(=O)NC1CCC1(F)F)c1cc(F)c(NC(=O)[C@@H](NC(=O)c2ccnn2C(C)C)C(C2CC2)C2CC2)cc1C(F)(F)F (single isomer, unassigned) [Compound 231]",0.1 to 1 µM
4,"CCn1nccc1C(=O)N[C@H](C(=O)Nc1cc(C(F)(F)F)c(C(C)C(=O)NC(CO)C(F)(F)F)cc1F)C(C1CC1)C1CC1 (single isomer, unassigned) [Compound 241]",> 1 µM
5,"CC(C(=O)NCC(F)(F)F)c1cc(F)c(NC(=O)[C@@H](NC(=O)c2ccnn2C(C)C)C(C2CC2)C2CC2)cc1Nc1ccccn1 (single isomer, unassigned) [Compound 262]",> 1 µM
6,"CCn1nccc1C(=O)N[C@H](C(=O)Nc1ccc(CC(=O)N(C)CC(F)(F)F)cc1F)C1CCCCCC1 [Compound 1, (S)-N-(1-cycloheptyl-2-((2-fluoro-4-(2-(methyl(2,2,2-trifluoroethyl)amino)-2-oxoethyl)phenyl)amino)-2-oxoethyl)-1-ethyl-1H-pyrazole-5-carboxamide]",0.1 to 1 µM
7,"CCn1nccc1C(=O)N[C@H](C(=O)Nc1ccc(CC(=O)N(C)C2(C(F)(F)F)CC2)cc1F)C1CCCCCC1 [Compound 5, (S)-N-(1-cycloheptyl-2-((2-fluoro-4-(2-(methyl(1-(trifluoromethyl)cyclopropyl)amino)-2-oxoethyl)phenyl)amino)-2-oxoethyl)-1-ethyl-1H-pyrazole-5-carboxamide]",> 1 µM
8,"CCn1nccc1C(=O)N[C@H](C(=O)Nc1ccc(C(C)(C)C(=O)NCC(F)(F)F)cc1F)C1CCCCCC1 [Compound 7, (S)-N-(1-cycloheptyl-2-((2-fluoro-4-(2-methyl-1-oxo-1-((2,2,2-trifluoroethyl)amino)propan-2-yl)phenyl)amino)-2-oxoethyl)-1-ethyl-1H-pyrazole-5-carboxamide]",0.1 to 1 µM
9,"CCn1nccc1C(=O)N[C@H](C(=O)Nc1ccc([C@H](C)C(=O)N(CC2CC2)CC(F)(F)F)cc1F)C1CCCCCC1 [Compound 8, N-((S)-1-cycloheptyl-2-((4-((S)-1-((cyclopropylmethyl)(2,2,2-trifluoroethyl)amino)-1-oxopropan-2-yl)-2-fluorophenyl)amino)-2-oxoethyl)-1-ethyl-1H-pyrazole-5-carboxamide]",< 0.1 µM
10,"CCn1nccc1C(=O)N[C@H](C(=O)Nc1ccc([C@H](C)C(=O)N2CCC[C@@H]2C(F)(F)F)cc1F)C(C1CC1)C1CC1 [Compound 9, N-((S)-1,1-dicyclopropyl-3-((2-fluoro-4-((S)-1-oxo-1-((R)-2-(trifluoromethyl)pyrrolidin-1-yl)propan-2-yl)phenyl)amino)-3-oxopropan-2-yl)-1-ethyl-1H-pyrazole-5-carboxamide]",> 1 µM
11,"CCn1nccc1C(=O)N[C@H](C(=O)Nc1ccc([C@H](C)C(=O)N(CCO)CC(F)(F)F)cc1F)C(C1CC1)C1CC1 [Compound 10, N-((S)-1,1-dicyclopropyl-3-((2-fluoro-4-((S)-1-((2-hydroxyethyl)(2,2,2-trifluoroethyl)amino)-1-oxopropan-2-yl)phenyl)amino)-3-oxopropan-2-yl)-1-ethyl-1H-pyrazole-5-carboxamide]",0.1 to 1 µM
12,"CCn1nccc1C(=O)N[C@H](C(=O)Nc1ccc([C@H](C)C(=O)N2CCC[C@H]2C(F)(F)F)cc1F)C(C1CC1)C1CC1 [Compound 11, N-((S)-1,1-dicyclopropyl-3-((2-fluoro-4-((S)-1-oxo-1-((S)-2-(trifluoromethyl)pyrrolidin-1-yl)propan-2-yl)phenyl)amino)-3-oxopropan-2-yl)-1-ethyl-1H-pyrazole-5-carboxamide]",< 0.1 µM
13,"CCn1nccc1C(=O)N[C@H](C(=O)Nc1ccc([C@H](C)C(=O)NC(CCO)C(F)(F)F)cc1F)C(C1CC1)C1CC1 (stereo partly drawn) [Compound 12, N-((2S)-1,1-dicyclopropyl-3-((2-fluoro-4-((2S)-1-oxo-1-((1,1,1-trifluoro-4-hydroxybutan-2-yl)amino)propan-2-yl)phenyl)amino)-3-oxopropan-2-yl)-1-ethyl-1H-pyrazole-5-carboxanude]",0.1 to 1 µM
14,"CC(C)n1nccc1C(=O)N[C@H](C(=O)Nc1ccc([C@H](C)C(=O)NC2CC2)cc1F)C(C1CC1)C1CC1 [Compound 16, N-((S)-1,1-dicyclopropyl-3-((4-((S)-1-(cyclopropylamino)-1-oxopropan-2-yl)-2-fluorophenyl)amino)-3-oxopropan-2-yl)-1-isopropyl-1H-pyrazole-5-carboxamide]",> 1 µM
15,"CC(C)n1nccc1C(=O)N[C@H](C(=O)Nc1ccc([C@H](C)C(=O)NCC(F)F)cc1F)C(C1CC1)C1CC1 [Compound 17, N-((S)-1,1-dicyclopropyl-3-((4-((S)-1-((2,2-difluoroethyl)amino)-1-oxopropan-2-yl)-2-fluorophenyl)amino)-3-oxopropan-2-yl)-1-isopropyl-1H-pyrazole-5-carboxanide]",0.1 to 1 µM
16,"CNCCN(CC(F)(F)F)C(=O)[C@@H](C)c1ccc(NC(=O)[C@@H](NC(=O)c2ccnn2C(C)C)C(C2CC2)C2CC2)c(F)c1 [Compound 22, N-((S)-1,1-dicyclopropyl-3-((2-fluoro-4-((S)-1-((2-(methylamino)ethyl)(2,2,2-trifluoroethyl)amino)-1-oxopropan-2-yl)phenyl)amino)-3-oxopropan-2-yl)-1-isopropyl-1H-pyrazole-5-carboxamide]",0.1 to 1 µM
17,"[2H]C([2H])([2H])N(CC(F)(F)F)C(=O)[C@@H](C)c1ccc(NC(=O)[C@@H](NC(=O)c2ccnn2C(C)C)C(C2CC2)C2CC2)c(F)c1 [Compound 23, N-((S)-1,1-dicyclopropyl-3-((2-fluoro-4-((S)-1-((methyl-d3)(2,2,2-trifluoroethyl)amino)-1-oxopropan-2-yl)phenyl)amino)-3-oxopropan-2-yl)-1-isopropyl-1H-pyrazole-5-carboxamide]",0.1 to 1 µM
18,"CC(C)n1nccc1C(=O)N[C@H](C(=O)Nc1ccc([C@H](C)C(=O)NC2CC2C(F)F)cc1F)C(C1CC1)C1CC1 (stereo partly drawn) [Compound 25, N-((2S)-1.1-dicyclopropyl-3-((4-((2S)-1-((2-(difluoromethyl)cyclopropyl)amino)-1-oxopropan-2-yl)-2-fluorophenyl)amino)-3-oxopropan-2-yl)-1-isopropyl-1H-pyrazole-5-carboxamide]",0.1 to 1 µM

# Further lines, results first:
row,IC50,Structure (SMILES)
1,0.1 to 1 µM,"Cc1cc(NC(=O)[C@@H](NC(=O)c2ccnn2C(C)C)C(C2CC2)C2CC2)c(F)cc1C(C)C(=O)N1CC(O)CC1C(F)(F)F (single isomer, unassigned) [Compound 200]"
2,< 0.1 µM,"COc1cc(NC(=O)[C@@H](NC(=O)c2ccnn2C(C)C)C(C2CC2)C2CC2)c(F)cc1C(C)C(=O)N1CC(O)CC1C(F)(F)F (single isomer, unassigned) [Compound 212]"
3,> 1 µM,"CC(C(=O)NCC(F)(F)F)c1cc(F)c(NC(=O)[C@@H](NC(=O)c2ccnn2C(C)C)C2CCC(F)(F)CC2)cc1OC(F)(F)F (single isomer, unassigned) [Compound 220]"
4,0.1 to 1 µM,"CC(C(=O)NC1CCC1(F)F)c1cc(F)c(NC(=O)[C@@H](NC(=O)c2ccnn2C(C)C)C(C2CC2)C2CC2)cc1C(F)(F)F (single isomer, unassigned) [Compound 230]"
5,< 0.1 µM,"CCn1nccc1C(=O)N[C@H](C(=O)Nc1cc(C(F)(F)F)c(C(C)C(=O)NC(CO)C(F)(F)F)cc1F)C(C1CC1)C1CC1 (single isomer, unassigned) [Compound 240]"
6,> 1 µM,"CC(C(=O)NCC(F)(F)F)c1cc(F)c(NC(=O)[C@@H](NC(=O)c2ccnn2C(C)C)C(C2CC2)C2CC2)cc1Nc1ccccn1 (single isomer, unassigned) [Compound 261]"
7,0.1 to 1 µM,"CCn1nccc1C(=O)N[C@H](C(=O)Nc1ccc(CC(=O)NCC(F)(F)F)cc1F)C1CCCCCC1 [Compound 2, (S)-N-(1-cycloheptyl-2-((2-fluoro-4-(2-oxo-2-((2,2,2-trifluoroethyl)amino)ethyl)phenyl)amino)-2-oxoethyl)-1-ethyl-1H-pyrazole-5-carboxamide]"
8,0.1 to 1 µM,"CCn1nccc1C(=O)N[C@H](C(=O)Nc1ccc([C@H](C)C(=O)N2CC(F)(F)C2)cc1F)C(C1CC1)C1CC1 [Compound 15, N-((S)-1,1-dicyclopropyl-3-((4-((S)-1-(3,3-difluoroazetidin-1-yl)-1-oxopropan-2-yl)-2-fluorophenyl)amino)-3-oxopropan-2-yl)-1-ethyl-1H-pyrazole-5-carboxamide]"
9,0.1 to 1 µM,"CC(C)n1nccc1C(=O)N[C@H](C(=O)Nc1ccc([C@H](C)C(=O)N2CCN(CC(F)(F)F)CC2)cc1F)C(C1CC1)C1CC1 [Compound 24, N-((S)-1.1-dicyclopropyl-3-((2-fluoro-4-((S)-1-oxo-1-(4-(2,2,2-trifluoroethyl)piperazin-1-yl)propan-2-yl)phenyl)amino)-3-oxopropan-2-yl)-1-isopropyl-1H-pyrazole-5-carboxamide]"
